Data reported in article PMC8528301 (PLoS ONE, 2021).
Values joined by “and” are separate entries in the source; they are usually repeats but may differ in a detail not shown here. Identical values can stand only once. Like-named read-outs stand apart in the source and are kept apart here.

What was measured:
[1] = Repeated discontinuous oral DEX PK study (another 60 mice); format: in vivo, mouse; details: for share of mice with measurable DEX / share of mice with DEX plasma concentration below LLOQ: Days 3.5+10.5; for share of mice with DEX plasma concentration below LLOQ: LLOQ = 5 nM; for concentration at 3.5 day / concentration at 10.5 day / concentration at 17.5 day: 8 mg/L, Average ± S.D. of quantifiable samples
Experimental: 1 g/L of tetracycline (Sigma-Aldrich Inc, St. Louis, MO, USA) was added during both phases. Assuming that mice drink 5 mL of water per day, the dose they receive would be 1.6–2 mg/kg/day. […] At the end of in vivo procedures, all plasma samples were transferred from dry ice and stored at –80°C until analysis.

GCR = details: read-out: GCR EC50; printed in Fig 9; ref J Biol Chem. 2002 Jan 11; PMID: 11682470; cited from earlier work
[2] = cited from earlier work; for Tmax: oral dosing
CYP3A4 = details: in vitro metabolic studies; humans; cited from earlier work

C[C@@H]1C[C@H]2[C@@H]3CCC4=CC(=O)C=C[C@]4(C)[C@@]3(F)[C@@H](O)C[C@]2(C)[C@@]1(O)C(=O)CO [DEX, dexamethasone]
share of mice with measurable DEX ([1]; female VD3 deficient): 100% | share of mice with DEX plasma concentration below LLOQ ([1]; female VD3 sufficient): 68% | concentration at 3.5 days ([1]; female, C57BL/6, mouse, plasma, oral, 8 mg/L in drinking water, DEX conc, individual mouse, repeated study, VD3 Suf, 3.5 Days): 52.8 nM | concentration at 10.5 days ([1]; female, C57BL/6, mouse, plasma, oral, 8 mg/L in drinking water, DEX conc, individual mouse, repeated study, VD3 Suf, 10.5 Days): 6.84 nM | concentration at 3.5 day ([1]; female, C57BL/6, mouse, plasma, oral, DEX conc, plasma, repeated study, VD3 Deficient, F, Day 3.5, n=15): 51.8 ± 86.8 nM | concentration at 10.5 day ([1]; female, C57BL/6, mouse, plasma, oral, DEX conc, plasma, repeated study, VD3 Deficient, F, Day 10.5, n=10): 116 ± 169 nM | concentration at 17.5 day ([1]; female, C57BL/6, mouse, plasma, oral, DEX conc, plasma, repeated study, VD3 Deficient, F, Day 17.5, n=5): 106 ± 65.5 nM | concentration at 3.5 day ([1]; female, C57BL/6, mouse, plasma, oral, DEX conc, plasma, repeated study, VD3 Sufficient, F, Day 3.5, n=5): 47.2 ± 9.15 nM | concentration at 10.5 day ([1]; female, C57BL/6, mouse, plasma, oral, DEX conc, plasma, repeated study, VD3 Sufficient, F, Day 10.5, n=3): 7.71 ± 1.12 nM | concentration at 17.5 day ([1]; female, C57BL/6, mouse, plasma, oral, DEX conc, plasma, repeated study, VD3 Sufficient, F, Day 17.5, n=5): 45.6 ± 27.2 nM | % BLQ ([1]; female, VD3 Def, 3.5 Days): 0% | % BLQ ([1]; female, VD3 Def, 10.5 Days): 0% | % BLQ ([1]; female, VD3 Def, 17.5 Days): 0% | % BLQ ([1]; female, VD3 Suf, 3.5 Days): 67% | % BLQ ([1]; female, VD3 Suf, 10.5 Days): 70% | % BLQ ([1]; female, VD3 Suf, 17.5 Days): 0% | share of mice with measurable DEX ([1]; male VD3 deficient): 96.5% | share of mice with DEX plasma concentration below LLOQ ([1]; male VD3 sufficient): 83% | concentration at 3.5 day ([1]; male, C57BL/6, mouse, plasma, oral, DEX conc, plasma, repeated study, VD3 Deficient, M, Day 3.5, n=13): 16 ± 16.6 nM | concentration at 10.5 day ([1]; male, C57BL/6, mouse, plasma, oral, DEX conc, plasma, repeated study, VD3 Deficient, M, Day 10.5, n=10): 48.7 ± 59.4 nM | concentration at 17.5 day ([1]; male, C57BL/6, mouse, plasma, oral, DEX conc, plasma, repeated study, VD3 Deficient, M, Day 17.5, n=5): 16.7 ± 7.19 nM | concentration at 3.5 day ([1]; male, C57BL/6, mouse, plasma, oral, DEX conc, plasma, repeated study, VD3 Sufficient, M, Day 3.5, n=5): 30.1 ± 14.4 nM | concentration at 17.5 day ([1]; male, C57BL/6, mouse, plasma, oral, DEX conc, plasma, repeated study, VD3 Sufficient, M, Day 17.5, n=5): 25.2 ± 8.2 nM | % BLQ ([1]; male, VD3 Def, 10.5 Days): 0% | % BLQ ([1]; male, VD3 Def, 17.5 Days): 0% | % BLQ ([1]; male, VD3 Suf, 10.5 Days): 100% | % BLQ ([1]; male, VD3 Suf, 17.5 Days): 0% | DEX conc, Average ± S.D. of quantifiable samples ([1]; plasma, repeated study, VD3 Deficient, F, Day 3.5, n=15): 51.832 nM | DEX conc, Average ± S.D. of quantifiable samples ([1]; plasma, repeated study, VD3 Deficient, F, Day 10.5, n=10): 116.245 nM | DEX conc, Average ± S.D. of quantifiable samples ([1]; plasma, repeated study, VD3 Deficient, F, Day 17.5, n=5): 105.912 nM | DEX conc, Average ± S.D. of quantifiable samples ([1]; plasma, repeated study, VD3 Deficient, M, Day 3.5, n=13): 15.9992 nM | DEX conc, Average ± S.D. of quantifiable samples ([1]; plasma, repeated study, VD3 Deficient, M, Day 10.5, n=10): 48.71 nM | DEX conc, Average ± S.D. of quantifiable samples ([1]; plasma, repeated study, VD3 Deficient, M, Day 17.5, n=5): 16.66 nM | DEX conc, Average ± S.D. of quantifiable samples ([1]; plasma, repeated study, VD3 Sufficient, F, Day 3.5, n=5): 47.222 nM | DEX conc, Average ± S.D. of quantifiable samples ([1]; plasma, repeated study, VD3 Sufficient, F, Day 10.5, n=3): 7.71 nM | DEX conc, Average ± S.D. of quantifiable samples ([1]; plasma, repeated study, VD3 Sufficient, F, Day 17.5, n=5): 45.604 nM | DEX conc, Average ± S.D. of quantifiable samples ([1]; plasma, repeated study, VD3 Sufficient, M, Day 3.5, n=5): 30.144 nM | DEX conc, Average ± S.D. of quantifiable samples ([1]; plasma, repeated study, VD3 Sufficient, M, Day 17.5, n=5): 25.19 nM | DEX conc, individual mouse ([1]; plasma, repeated study, female, VD3 Suf, 3.5 Days): BLQ (BLQ = BELOW the LLOQ, lower lmit of quantification = 5 nM dexamethasone) | DEX conc, individual mouse ([1]; plasma, repeated study, female, VD3 Suf, 10.5 Days): BLQ (BLQ = BELOW the LLOQ, lower lmit of quantification = 5 nM dexamethasone) | DEX conc, individual mouse ([1]; plasma, repeated study, male, VD3 Def, 3.5 Days): 9.88 nM and 17.04 nM and 5.32 nM and 11.52 nM and 38.23 nM and BLQ (BLQ = BELOW the LLOQ, lower lmit of quantification = 5 nM dexamethasone) and 6.47 nM and 59.55 nM and 8.86 nM and 29.02 nM and 4.39 nM and 6.91 nM | DEX conc, individual mouse ([1]; plasma, repeated study, male, VD3 Def, 10.5 Days): 19.46 nM and 37.99 nM and 211.48 nM and 27.59 nM and 28.34 nM and 9.45 nM and 27.41 nM | DEX conc, individual mouse ([1]; plasma, repeated study, male, VD3 Def, 17.5 Days): 12.05 nM and 27.36 nM | DEX conc, individual mouse ([1]; plasma, repeated study, male, VD3 Suf, 3.5 Days): BLQ (BLQ = BELOW the LLOQ, lower lmit of quantification = 5 nM dexamethasone) | DEX conc, individual mouse ([1]; plasma, repeated study, male, VD3 Suf, 10.5 Days): BLQ (BLQ = BELOW the LLOQ, lower lmit of quantification = 5 nM dexamethasone) | DEX conc, individual mouse ([1]; plasma, repeated study, male, VD3 Suf, 17.5 Days): 22.35 nM and 12.66 nM and 32.4 nM and 32.15 nM and 26.39 nM | % BLQ ([1]; share of plasma samples below LLOQ 5 nM, male, VD3 Suf, 3.5 Days): 67% | EC50 (GCR): 11 nM

Cc1nc(Nc2ncc(C(=O)Nc3c(C)cccc3Cl)s2)cc(N2CCN(CCO)CC2)n1 [dasatinib]
bioavailability ([2]; mice): 17% | bioavailability ([2]; one study, species not given): 45–51% | Tmax ([2]; Mdr1a wild-type and KO mice): 0.25 h | Tmax ([2]; nude female nude mice): 2 h | share of dasatinib metabolized by CYP3A4 (CYP3A4): 98%
